From PMC4663518, “Cytotoxic Indole Alkaloids against Human Leukemia Cell Lines from the Toxic Plant Peganum harmala” (Toxins, 2015)

Legend:
HEL cells = assay: MTT cytotoxicity assay, HEL; format: cell-based, human; settings: 48 h, Mean ± SD
Procedure: (§1) Cytotoxicity was measured by the MTT assay.

HL-60 cells = assay: MTT cytotoxicity assay, HL-60; format: cell-based, human; settings: Mean ± SD
Procedure: as §1

U-937 cells [1] = assay: MTT cytotoxicity assay, U-937; format: cell-based, human; settings: Mean ± SD
Procedure: as §1

KG1 cells = assay: MTT cytotoxicity assay, KG1; format: cell-based, human; settings: Mean ± SD
Procedure: as §1

in vitro = settings: human
Procedure: (§9) Meanwhile, the cytotoxicity against human embryonic kidney cells (HEK-293) was evaluated for their toxic selectivity.
(§10) Human leukemia cell lines (U-937, HL-60, KG1 and HEL) and human embryonic kidney cells (HEK-293) were purchased from American Type Culture Collection (ATCC) (Manassas, VA, USA). Cells were cultured in RPMI 1640 supplemented with 10% fetal bovine serum (Gibco Life Technologies, Grand Island, NY, USA), 50 U/mL penicillin and 100 μg/mL streptomycin and maintained in a humidified atmosphere containing 5% CO2 at 37 °C. Penicillin and streptomycin were purchased from Hyclone (Logan, UT, USA).
(§11) Cytotoxicity was measured by the MTT assay. Briefly, cells were cultured in RPMI 1640 supplemented with 10% fetal bovine serum, 10 mmol/L Hepes, 50 units/mL penicillin, 50 μg/mL streptomycin, and 100 μg /mL gentamicin and were maintained at 37 °C in 5% CO2. A total of 2.5 × 10^4 cells in growth media were placed in each well of a 96-well flat-bottom plate. After 12 h of incubation, the growth medium was replaced by media containing different concentrations of the test samples. Cytotoxicity was determined at 48 h from the MTT absorbance (490 nm) reading for each concentration compared to the control. At least three replications for each sample were used to determine the cytotoxicity.

[2] = MTT cytotoxicity assay, HEK-293 (toxic selectivity); settings: human, HEK-293 cells, IC50 HEK-293, MTT, Mean ± SD
Procedure: as §9, §10, §11

Caspase 3 = Caspase 3 activation in U-937 cells; format: cell-based, human; settings: 2.0 μmol/L, 24 h
Procedure: (§2) Since Bcl-2 family members were critical regulators of the mitochondrial pathway that induced intrinsic caspase activation, RT-PCR was applied to detect the mRNA level of Bax and Bcl-2 in HMC-treated U-937 cells. […] Meanwhile, Western blot analyses were carried out to observe the expressions of Bcl-2 and Bax.
(§3) U-937 cells were treated with 2.0 µmol/L HMC for 0, 24 and 48 h, respectively. The whole cells were collected, and then the cell pellets were resuspended with RIPA buffer that contained a mixture of protease inhibitors at 4 °C for 30 min. After 14,000× g centrifugation for 15 min, the protein content of supernatant was determined by the Bio-Rad DC protein assay (Bio-Rad Laboratories, Hercules, CA, USA). […] Proteins were detected using primary antibodies, followed by HRP-conjugated secondary antibody. Labeling was detected using the ECL system (Amersham Biosciences Corp., Piscataway, NJ, USA).

Bax = assay: Western blot Bax in U-937 cells; format: cell-based, human; settings: 2.0 µmol/L, 24 h
Procedure: as §2, §3

p-ERK1/2 = assay: Western blot p-ERK1/2 in U-937 cells; format: cell-based, human; settings: 2.0 µmol/L, 0, 24 and 48 h
Description: (§4) Unusual activation of Ras/Raf/MAPK signaling pathway is one of main characteristic of human cancer. In this study, the Ras/Raf/MAPK pathway was investigated in HMC-induced U-937 cell apoptosis. Genistein, a broad-spectrum inhibitor of protein tyrosine kinases (PTKs), was used to detect the cell viability after HMC treatment. […] Moreover, the expressions of Ras/Raf/ERK in U-937 cells were detected after HMC treatment in different time courses.
(§5) Figure 3 Apoptosis via Ras/Raf/ERK signaling pathway in U-937 cells after HMC treatment. (A) Cell viability was assessed using MTT method in U-937 cells after pretreated by 10 µmol/L Genistein for 1 h, and then the cells were incubated without or with 2.0 µmol/L HMC for 48 h. […] Data are presented as means ± SEM of three independent tests. * p < 0.05 versus control, ** p < 0.01 versus control.
as §3, with “The whole cells were collected, and then the cell pellets were resuspended with RIPA buffer that contained a mixture of protease inhibitors at 4 °C for 30 min.” left out

U-937 cells [3] = assay: ATP luminescence level; format: cell-based, human; settings: 2.0 μmol/L, 24 h
Procedure: (§6) To make it clear whether HMC-induce apoptosis was related to mitochondrial function, mitochondrial transmembrane potential was assessed using Rhodamine 123. […] Meanwhile, the ATP level of mitochondria was measured in U-937 cells treated by HMC.
ATP luminescence was detected according to the manufactured information to evaluate the mitochondrial damage after 2.0 µmol/L HMC insulting. U-937 cells were treated without or with HMC for 24 h. After incubation, equilibrate the plates and its contents at room temperature for 30 min. One hundred microliters of cell titer reagent was added to each well in a 96-well plate and the plate was shaken gently for 2 min to induce cell lysis. The plate was incubated at room temperature for 10 min to stabilize luminescent signal and then record luminescence.

U-937 cells [4] = assay: Mitochondrial transmembrane potential, Rhodamine 123; format: cell-based, human; settings: Rhodamine 123, compared with the control group
Description: (§7) Figure 2 HMC initiated apoptosis in U-937 cells through mitochondrial and Caspase cascade. (A) Apoptotic U-937 cells were observed after the cells were stained by Hoechst 33258. (B) Mitochondrial transmembrane potential was reduced in U-937 cells stained by Rodamine123. […] (D–F) HMC impacted the mRNA levels and protein expressions of Bax and Bcl-2 in U-937 cells leading to the activation of caspase 3. Data are presented as means ± SD of three independent tests. * p < 0.05 versus control, ** p < 0.01 versus control.
as §6

total ERK = assay: Western blot total ERK in U-937 cells; format: cell-based, human; settings: 2.0 µmol/L, 0, 24 and 48 h
Description: as §4, §5
as §3, with “The whole cells were collected, and then the cell pellets were resuspended with RIPA buffer that contained a mixture of protease inhibitors at 4 °C for 30 min.” left out

Bcl-2 = assay: Western blot Bcl-2 in U-937 cells; format: cell-based, human; settings: 2.0 µmol/L, 24 h
Procedure: as §2, §3

p-Raf = assay: Western blot p-Raf in U-937 cells; format: cell-based, human; settings: 2.0 µmol/L, 0, 24 and 48 h
Description: as §4, §5
as §3, with “The whole cells were collected, and then the cell pellets were resuspended with RIPA buffer that contained a mixture of protease inhibitors at 4 °C for 30 min.” left out

Bax mRNA = assay: RT-PCR Bax mRNA in U-937 cells; format: cell-based, human; settings: 2.0 µmol/L, 24 h
Procedure: as §2
(§8) Total RNA extraction for leukemia cells was performed by using Trizol method. U-937 cells were seeded in 6 well plates for 24 h, and then the cells were treated by 2.0 µmol/L HMC for another 24 h. After treatment, the cells were collected for RNA extraction. The forward and reversed primers of Bax were […] and […]. The forward and reversed primers of Bcl-2 were […] and […]. The forward and reversed primers of GAPDH were […] and […]. The reaction was conducted under the conditions with 94 °C for 30 s, 95 °C for 5 s, 62 °C for 30 s, 72 °C for 30 s for 30 cycles. Identity of the PCR-products was controlled by melting curve analysis. Standard curves were prepared from isolated PCR products by serial dilution. Data were normalized towards GAPDH expression and statistically analyzed.

Bcl-2 mRNA = assay: RT-PCR Bcl-2 mRNA in U-937 cells; format: cell-based, human; settings: 2.0 µmol/L, 24 h
Procedure: as §2, §8

U-937 cells [5] = assay: Hoechst 33258 staining, apoptotic morphology; format: cell-based, human; settings: 2.0 μmol/L, 24 h
Description: Based on the cytotoxic results, compound 8 (HMC) has pronounced cytotoxicity against human leukemia cells, especially to U-937 cells. Therefore, it was worthy of investigating the cytotoxic mechanism of HMC in U-937 cell death. To elucidate the characteristics of HMC-induced U-937 cells, morphologic changes were examined.
as §7

Ras = assay: Western blot Ras in U-937 cells; format: cell-based, human; settings: 2.0 µmol/L, 0, 24 and 48 h
Description: as §4, §5
as §3, with “The whole cells were collected, and then the cell pellets were resuspended with RIPA buffer that contained a mixture of protease inhibitors at 4 °C for 30 min.” left out

[6] = test system: human embryonic kidney cells HEK-293; assay: MTT cytotoxicity assay, HEK-293 (toxic selectivity); settings: read-out: IC50 HEK-293; MTT, 48 h, Mean ± SD
Procedure: as §9, §10, §11

U-937 cells [7] = assay: MTT cell viability, genistein pretreatment plus HMC; format: cell-based, human; settings: 10 µmol/L Genistein pretreatment 1 h, then 2.0 µmol/L HMC 48 h
Description: as §4, §5

Molecule | IC50 (HEL cells; Homo sapiens, HEL) [µM] | IC50 (HL-60 cells; Homo sapiens, HL-60, 48 h) [µM] | IC50 (U-937 cells [1]; Homo sapiens, U-937, 48 h) [µM] | IC50 (KG1 cells; Homo sapiens, KG-1, 48 h) [µM] | IC50 at 48 h (in vitro) [µM] | further results
N.N.[Cl][Pt][Cl] [Cisplatin, cisplatin, reference compound] | – | – | – | – | – | IC50 (HEL cells): 7.7 ± 0.2 µM; IC50 (HL-60 cells; 48 h): 13.5 ± 0.4 µM; IC50 (U-937 cells [1]; 48 h): 6.3 ± 0.5 µM; IC50 (KG1 cells; 48 h): 4.1 ± 0.3 µM
OC[C@H]1O[C@@H](OCCc2c[nH]c3ccccc23)[C@H](O)[C@@H](O)[C@@H]1O [Compound 1, 2-(indol-3-yl)ethyl-β-D-glucopyranoside] | 121 ± 5.5 | 78.9 ± 3.8 | 52.1 ± 2.6 | 23.1 ± 1.4 | > 200 | –
C[C@@H]1O[C@@H](OC[C@H]2O[C@@H](OCCc3c[nH]c4ccccc34)[C@H](O)[C@@H](O)[C@@H]2O)[C@H](O)[C@H](O)[C@H]1O [Compound 2, 2-(indol-3-yl)ethyl-α-L-rhamnopyranosyl-(1 → 6)-β-D-glucopyranoside] | 131 ± 4.9 | 55.3 ± 3.4 | 80.2 ± 4.5 | 60.2 ± 2.7 | > 200 | –
COc1ccc2c(c1)NC(=O)[C@]2(O)CCNC(C)=O [Compound 3, (S)-3-hydroxy-3-(N-acetyl-2-aminoethyl)-6-methoxyindol-2-one] | 55.3 ± 3.2 | 36.2 ± 1.1 | 75.3 ± 2.8 | > 200 | 122 ± 5.7 | –
COc1ccc2c(c1)[nH]c1c(C)nccc12 [Compound 5, harmine] | 20.3 ± 1.1 | 71.2 ± 3.3 | 23.1 ± 0.9 | 62.7 ± 2.8 | – | IC50 at 48 h [2]: > 200 µM
COc1ccc2c([nH]c3c(C)nccc32)c1O[C@@H]1O[C@H](CO)[C@@H](O)[C@H](O)[C@H]1O [Compound 6, ruin] | 71.6 ± 2.7 | 60.7 ± 2.9 | 30.6 ± 1.2 | 44.5 ± 2.1 | > 200 | –
COC(=O)c1nccc2c1[nH]c1cc(OC)ccc12 [Compound 7, harmic acid methyl ester] | 35.2 ± 2.8 | 44.3 ± 2.1 | 22.3 ± 1.4 | 56.8 ± 2.5 | 164 ± 8.1 | –
COc1ccc2c3c([nH]c2c1)C=NCC3 [Compound 8, harmalacidine] | 25.7 ± 1.1 | 61.3 ± 2.8 | 3.1 ± 0.2 | 32.6 ± 1.7 | – | Caspase 3 activation (Caspase 3): activated; expression of pro-apoptotic Bax (Bax): began to increase; expression of p-ERK1/2 (p-ERK1/2): down-regulate; ATP level (U-937 cells [3]): reduce; mitochondrial transmembrane potential (U-937 cells [4]): obviously reduced; total ERK (total ERK): kept no change; expression of anti-apoptotic Bcl-2 (Bcl-2): began to decrease; expression of p-Raf (p-Raf): down-regulate; IC50 at 48 h [2]: > 200 µM; Bax mRNA level (Bax mRNA): increase; Bcl-2 mRNA level (Bcl-2 mRNA): reduce; morphologic alterations of cell apoptosis (membrane blebbing, nuclear condensation, granular apoptotic bodies) (U-937 cells [5]): characteristic morphologic alterations of cell apoptosis were observed; expression of Ras (Ras): down-regulate
COc1ccc2c3c([nH]c2c1)C(C)=NCC3 [Compound 9, harmaline] | 20.1 ± 1.2 | 55.3 ± 2.4 | 10.6 ± 0.7 | 46.8 ± 1.9 | – | IC50 at 48 h [2]: 156 ± 7.2 µM
COc1ccc2c3c([nH]c2c1)C(C)=NCC3 [Compound 10, protonated harmaline] | – | – | – | – | – | IC50 (HEL cells): 21.2 ± 1.1 µM; IC50 (HL-60 cells; 48 h): 45.7 ± 2.1 µM; IC50 [6]: 132 ± 4.6 µM; IC50 (U-937 cells [1]; 48 h): 15.3 ± 0.7 µM; IC50 (KG1 cells; 48 h): 56.9 ± 2.3 µM
CCc1cc2nccc3c4ccc(OC)cc4n(c1=O)c23 [Compound 11, luotonin C] | 68.3 ± 3 | 87.3 ± 3.7 | 49.6 ± 1.9 | 113 ± 5.6 | > 200 | –
COc1ccc2c3c([nH]c2c1)-c1nc2ccccc2c(=O)n1CC3 [Compound 12, 11-methyoxyl-rutaecarpine] | 121 ± 5.5 | 93.8 ± 6.8 | 55.3 ± 1.7 | 88.1 ± 3.7 | > 200 | –
O=c1c(-c2ccc(O)cc2)coc2cc(O)cc(O)c12 [genistein, Genistein] | – | – | – | – | – | cell viability after HMC co-incubation compared with HMC-treated only (U-937 cells [7]): significantly decrease
harmol [Compound 4] | – | – | – | – | – | IC50 (HEL cells): 54.6 ± 2.3 µM; IC50 (HL-60 cells; 48 h): 62 ± 2.8 µM; IC50 [6]: > 200 µM; IC50 (U-937 cells [1]; 48 h): 46.1 ± 2 µM; IC50 (KG1 cells; 48 h): 47.7 ± 2.3 µM
